Reference: patent publication US4604239A, “Antibiotics” (Eli Lilly and Company, priority 1985, dated 1986)
Where “and” joins values, the source holds several entries; their conditions need not be identical. Equal values may be shown once. Read-outs that look alike come from different tables or passages of the source.

Key:
[1] = electrometric titration; assay type: physicochemical; conditions: electrometric titration in 66% dimethylformamide in water
Description: Antibiotic A41030 factor A is a white, crystalline solid.

[2] = system: Clostridium perfringens; assay type: cell-based; conditions: Clostridium perfringens 81; Table 14
[3] = system: Hemophilus influenzae; test: agar-dilution MIC; assay type: cell-based; conditions: Table 17
[4] = system: Peptococcus prevoti; test: agar-dilution MIC; assay type: cell-based; conditions: Peptococcus prevoti 1281; Table 14
[5] = solubility; assay type: physicochemical
[6] = system: Eubacterium aerofaciens; test: agar-dilution MIC; assay type: cell-based; conditions: Eubacterium aerofaciens 1235; Table 14
[7] = system: Peptostreptococcus intermedius; test: agar-dilution MIC; assay type: cell-based; conditions: Peptostreptococcus intermedius 1264; Table 14
[8] = system: Peptostreptococcus anaerobius; test: agar-dilution MIC; assay type: cell-based; conditions: Peptostreptococcus anaerobius 1428; Table 14
[9] = system: S. pyogenes; test: experimental bacterial infection in mice; assay type: in vivo; conditions: S. pyogenes infection in mice; two doses subcutaneously
[10] = system: Fusobacterium symbiosum; test: agar-dilution MIC; assay type: cell-based; conditions: Fusobacterium symbiosum 1470; Table 14
[11] = system: Bacteroides corrodens; test: agar-dilution MIC; assay type: cell-based; conditions: Bacteroides corrodens 1874; Table 14
[12] = system: Bacteroides vulgatis; test: agar-dilution MIC; assay type: cell-based; conditions: Bacteroides vulgatis 1211; Table 14
[13] = system: Bacteroides thetaiotaomicron; assay type: cell-based; conditions: Bacteroides thetaiotaomicron 1438; Table 14
Description: (§1) The agar-dilution procedure described by the International Collaborative study (ICS) group was used to determine the minimum inhibitory concentrations (MIC's).

[14] = system: Staphylococcus aureus; test: agar-dilution MIC; assay type: cell-based
[15] = system: Staph. aureus; test: experimental bacterial infection in mice; assay type: in vivo; conditions: two doses subcutaneously
Description: (§2) All of the A41030 factors tested have shown in vivo antimicrobial activity against experimental bacterial infections. When two doses of test compound were administered subcutaneously to mice in illustrative infections, the activity observed is measured as an ED50 value [effective dose in mg./kg. to protect fifty percent of the test animals: See Warren Wick, et al., J. Bacteriol. 81, 233-235 (1961)].

[16] = system: S. pneumoniae; test: experimental bacterial infection in mice; assay type: in vivo; conditions: two doses subcutaneously
Description: as §2

[17] = system: Propionibacterium acnes; test: agar-dilution MIC; assay type: cell-based; conditions: Propionibacterium acnes 79; Table 14
Description: Antibiotic A41030 factors A, B and C have also been tested and found to be active against a genus of anaerobic bacteria identified as Propionibacterium acnes.

[18] = system: Bacteroides melaninogenicus; test: agar-dilution MIC; assay type: cell-based; conditions: Bacteroides melaninogenicus 2736; Table 14
[19] = system: Streptococcus sp. (Group D); test: agar-dilution MIC; assay type: cell-based; conditions: Table 17
Description: as §1

[20] = system: Streptococcus pneumoniae; test: agar-dilution MIC; assay type: cell-based; conditions: Streptococcus pneumoniae Park I; Table 17
Description: as §1

[21] = system: Streptococcus pyogenes; test: agar-dilution MIC; assay type: cell-based; conditions: Streptococcus pyogenes C203; Table 17
Description: as §1

[22] = system: Bacteroides fragilis; test: agar-dilution MIC; assay type: cell-based; conditions: Table 14
Description: as §1

[23] = system: Staphylococcus epidermidis; test: agar-dilution MIC; assay type: cell-based; conditions: Table 17
Description: as §1

[24] = system: Fusobacterium necrophorum; test: agar-dilution MIC; assay type: cell-based; conditions: Fusobacterium necrophorum 6054A; Table 14
[25] = system: Clostridium septicum; test: agar-dilution MIC; assay type: cell-based; conditions: Clostridium septicum 1128; Table 14
[26] = system: Clostridium difficile; assay type: cell-based
[27] = system: Peptococcus asaccharolyticus; test: agar-dilution MIC; assay type: cell-based; conditions: Peptococcus asaccharolyticus 1302; Table 14
Description: The MIC values were determined by the agar-dilution method, and are recorded in Table 15, which follows.

[28] = system: Klebsiella pneumoniae; test: agar-dilution MIC; assay type: cell-based; conditions: Klebsiella pneumoniae X26; Table 17
Description: The results after reading the which follows.

[29] = Staphylococcus epidermidis EPI1
[30] = Clostridium difficile 78, Table 16
[31] = Clostridium difficile 107B, Table 16
[32] = Clostridium difficile 111F, Table 16
[33] = Clostridium difficile 1153, Table 16
[34] = Clostridium difficile 2634, Table 16
[35] = Clostridium difficile 3424-5B, Table 16
[36] = Clostridium difficile 3816, Table 16
[37] = Clostridium difficile 6890, Table 16
[38] = Clostridium difficile 8484, Table 16
[39] = Clostridium difficile A-194, Table 16
[40] = Clostridium difficile A-195, Table 16
[41] = Clostridium difficile A-196, Table 16
[42] = Clostridium difficile A-279, Table 16
[43] = Clostridium difficile A-281, Table 16
[44] = Clostridium difficile WAL-2112, Table 16
[45] = Clostridium difficile WAL-3657, Table 16
[46] = Clostridium difficile WAL-4268, Table 16

Substance: A41030 factor F
- possibly additional pKa's [1]: > 10
- MIC [2]: 1.0 µg/mL
- MIC ([3]; Haemophilus influenzae 76): 32 µg/mL
- MIC ([3]; Haemophilus influenzae C.L.): 32 µg/mL
- MIC [4]: 32 µg/mL
- solubility (solvents) [5]: soluble in the same solvents as factor A
- MIC [6]: 1.0 µg/mL
- MIC [7]: 1.0 µg/mL
- MIC [8]: 32 µg/mL
- ED50 [9]: > 5.0 mg/kg
- MIC [10]: 1.0 µg/mL
- MIC [11]: 32 µg/mL
- MIC [12]: 32 µg/mL
- MIC [13]: 64 µg/mL
- MIC ([14]; Staphylococcus aureus S13E, Table 17): 1 µg/mL
- MIC ([14]; in µg/mL): 0.5 and 1
- ED50 [15]: < 0.31 mg/kg
- ED50 [16]: > 5.0 mg/kg
- MIC [17]: 1.0 µg/mL
- MIC [18]: 1.0 µg/mL
- MIC ([19]; Streptococcus sp. Group D 9960): 4 µg/mL
- MIC ([19]; Streptococcus sp. Group D X66): 4 µg/mL
- MIC [20]: 2 µg/mL
- MIC [21]: 2 µg/mL
- MIC ([22]; Bacteroides fragilis 111): 32 µg/mL
- MIC ([22]; Bacteroides fragilis 1877): 32 µg/mL
- MIC ([22]; Bacteroides fragilis 1936B): 32 µg/mL
- MIC [23, 29]: 0.25 µg/mL
- MIC [24]: 1.0 µg/mL
- MIC [25]: 1.0 µg/mL
- MIC [26, 30]: 1.0 µg/mL
- MIC [26, 31]: 1.0 µg/mL
- MIC [26, 32]: 2 µg/mL
- MIC [26, 33]: 2 µg/mL
- MIC [26, 34]: 2 µg/mL
- MIC [26, 35]: 1.0 µg/mL
- MIC [26, 36]: 1.0 µg/mL
- MIC [26, 37]: 1.0 µg/mL
- MIC [26, 38]: 1.0 µg/mL
- MIC [26, 39]: 1.0 µg/mL
- MIC [26, 40]: 1.0 µg/mL
- MIC [26, 41]: 2 µg/mL
- MIC [26, 42]: 1.0 µg/mL
- MIC ([26]; Clostridium difficile A-280, Table 16): 1.0 µg/mL
- MIC [26, 43]: 2 µg/mL
- MIC [26, 44]: 1.0 µg/mL
- MIC [26, 45]: 1.0 µg/mL
- MIC [26, 46]: 1.0 µg/mL
- MIC [27]: ≤ 0.25 µg/mL

Substance: A41030 factor G
- possibly additional pKa's [1]: > 10.5
- MIC [2]: 2 µg/mL
- MIC ([3]; Haemophilus influenzae 76): 32 µg/mL
- MIC ([3]; Haemophilus influenzae C.L.): 32 µg/mL
- MIC [4]: 2 µg/mL
- solubility (solvents) [5]: soluble in the same solvents as is factor A
- MIC [6]: 2 µg/mL
- MIC [7]: 2 µg/mL
- MIC [8]: ≤ 0.5 µg/mL
- MIC [10]: 2 µg/mL
- MIC [11]: 32 µg/mL
- MIC [12]: 64 µg/mL
- MIC [13]: 64 µg/mL
- MIC [17]: 1.0 µg/mL
- MIC [18]: 64 µg/mL
- MIC ([19]; Streptococcus sp. Group D 9960): 4 µg/mL
- MIC ([19]; Streptococcus sp. Group D X66): 4 µg/mL
- MIC [20]: 2 µg/mL
- MIC [21]: 2 µg/mL
- MIC ([22]; Bacteroides fragilis 111): 32 µg/mL
- MIC ([22]; Bacteroides fragilis 1877): 32 µg/mL
- MIC ([22]; Bacteroides fragilis 1936B): 64 µg/mL
- MIC [23, 29]: 0.5 µg/mL
- MIC ([23]; Staphylococcus epidermidis EPI2): 0.5 µg/mL
- MIC [28]: 64 µg/mL
- MIC [24]: 2 µg/mL
- MIC [25]: 2 µg/mL
- MIC [26, 30]: 1.0 µg/mL
- MIC [26, 31]: 1.0 µg/mL
- MIC [26, 32]: 1.0 µg/mL
- MIC [26, 33]: 1.0 µg/mL
- MIC [26, 34]: 1.0 µg/mL
- MIC ([26]; Clostridium difficile 2994, Table 14): 2 µg/mL
- MIC [26, 35]: 1.0 µg/mL
- MIC [26, 36]: 1.0 µg/mL
- MIC ([26]; Clostridium difficile 3950D, Table 16): 1.0 µg/mL
- MIC [26, 37]: 1.0 µg/mL
- MIC [26, 38]: 1.0 µg/mL
- MIC [26, 39]: 1.0 µg/mL
- MIC [26, 40]: 1.0 µg/mL
- MIC [26, 41]: 1.0 µg/mL
- MIC [26, 42]: 1.0 µg/mL
- MIC [26, 43]: 1.0 µg/mL
- MIC [26, 44]: 1.0 µg/mL
- MIC [26, 45]: 1.0 µg/mL
- MIC [26, 46]: 1.0 µg/mL
- MIC [27]: 1.0 µg/mL
